# Data reported in US20250064844A1 (Emory University, priority 2020, published 2025).
# Read-outs that look alike come from different tables or passages of the source.
# Tests used:
# [1] = clinical; settings: human, in vivo; for AUC(0-inf): AUCinf
# [2] = cynomolgus monkey, in vivo, po
# [3] = system: SARS-CoV2; assay: microbe, parasite or virus in culture; assay type: cell-based; settings: Severe acute respiratory syndrome coronavirus 2, Vero
# [4] = system: Vero cells; assay: Cell uptake and metabolism of EIDD-2801 in Vero cells; settings: intracellular analyte; Vero cells incubated with 20 μM EIDD-2801, 1-24 hours
# [5] = system: SARS; assay: organism not typed; assay type: cell-based; settings: Vero C1008
# [6] = human, in vivo
# [7] = system: HepG2 cells; assay: Cell uptake and metabolism of EIDD-2801 in HepG2 cells; settings: intracellular analyte; HepG2 cells incubated with 20 μM EIDD-2801, 1-24 hours
# [8] = system: HCoV; assay: organism not typed; assay type: cell-based; settings: Vero C1008
# [9] = system: SARS; assay: organism not typed; assay type: cell-based; settings: Vero C1008, SARS; Vero E6
# [10] = system: CEM cells; assay: Cell uptake and metabolism of EIDD-2801 in CEM cells; settings: intracellular analyte; CEM cells incubated with EIDD-2801 (40 μM solution prepared), 1-24 hours
# [11] = system: Huh-7 cells; assay: Cell uptake and metabolism of EIDD-2801 in Huh-7 cells; settings: intracellular analyte; Huh-7 cells incubated with 20 μM EIDD-2801, 1-24 hours
compound,measurement,setting,value
"O=c1nc(NO)ccn1C1OC(CO)C(O)C1O (stereo not shown) [EIDD-1931, 1-(3,4-dihydroxy-5-(hydroxymethyl)tetrahydrofuran-2-yl)-4-(hydroxyamino)pyrimidin-2-one]",AUC(0-inf),[1]; 50 mg,461 ng·h/mL
same,AUC(0-t),"[1]; 50 mg, AUClast",444 ng·h/mL
same,AUC(0-t),"[1]; 50 mg, AUCt",461 ng·h/mL
same,Cmax,[1]; 50 mg,223 ng/mL
same,half-life,"[1]; 50 mg, t1/2",0.937 h
same,Tmax,"[1]; 50 mg, tmax",1 h
same,AUC(0-inf),[1]; 100 mg,855 ng·h/mL
same,AUC(0-t),"[1]; 100 mg, AUClast",835 ng·h/mL
same,AUC(0-t),"[1]; 100 mg, AUCt",854 ng·h/mL
same,Cmax,[1]; 100 mg,395 ng/mL
same,half-life,"[1]; 100 mg, t1/2",0.918 h
same,Tmax,"[1]; 100 mg, tmax",1.25 h
same,AUC(0-inf),[1]; 200 mg,1660 ng·h/mL
same,AUC(0-t),"[1]; 200 mg, AUClast",1720 ng·h/mL
same,AUC(0-t),"[1]; 200 mg, AUCt",1730 ng·h/mL
same,Cmax,[1]; 200 mg,742 ng/mL
same,half-life,"[1]; 200 mg, t1/2",1.09 h
same,Tmax,"[1]; 200 mg, tmax",1.5 h
same,AUC(0-inf),[1]; 300 mg,3090 ng·h/mL
same,AUC(0-t),"[1]; 300 mg, AUClast",2980 ng·h/mL
same,AUC(0-t),"[1]; 300 mg, AUCt",2960 ng·h/mL
same,Cmax,[1]; 300 mg,1100 ng/mL
same,half-life,"[1]; 300 mg, t1/2",1.71 h
same,Tmax,"[1]; 300 mg, tmax",1.5 h
same,AUC(0-inf),[1]; 400 mg,3800 ng·h/mL
same,AUC(0-t),"[1]; 400 mg, AUClast",3730 ng·h/mL
same,AUC(0-t),"[1]; 400 mg, AUCt",3710 ng·h/mL
same,Cmax,[1]; 400 mg,1470 ng/mL
same,half-life,"[1]; 400 mg, t1/2",1.2 h
same,Tmax,"[1]; 400 mg, tmax",1.5 h
same,AUC(0-inf),[1]; 600 mg,6680 ng·h/mL
same,AUC(0-t),"[1]; 600 mg, AUClast",7250 ng·h/mL
same,AUC(0-t),"[1]; 600 mg, AUCt",7110 ng·h/mL
same,Cmax,[1]; 600 mg,2240 ng/mL
same,half-life,"[1]; 600 mg, t1/2",1.16 h
same,Tmax,"[1]; 600 mg, tmax",1.75 h
same,AUC(0-inf),[1]; 800 mg,8200 ng·h/mL
same,AUC(0-t),"[1]; 800 mg, AUClast",8450 ng·h/mL
same,AUC(0-t),"[1]; 800 mg, AUCt",8330 ng·h/mL
same,Cmax,[1]; 800 mg,2970 ng/mL
same,Tmax,"[1]; 800 mg, tmax",1.5 h
same,half-life,[1]; mean t1/2,0.918 to 1.18 h
same,Tmax,[1]; median tmax,1 to 1.75 h
same,AUC(0-inf),"[1]; po, 50 mg",432 ng·h/mL
same,AUC(0-t),"[1]; po, 50 mg, AUClast",415 ng·h/mL
same,Cmax,"[1]; po, 50 mg",223 ng/mL
same,half-life,"[1]; po, 50 mg, t1/2",0.945 h
same,Tmax,"[1]; po, 50 mg, tmax (median)",1 h
same,AUC(0-inf),"[1]; po, 100 mg",932 ng·h/mL
same,AUC(0-t),"[1]; po, 100 mg, AUClast",917 ng·h/mL
same,Cmax,"[1]; po, 100 mg",454 ng/mL
same,half-life,"[1]; po, 100 mg, t1/2",0.907 h
same,Tmax,"[1]; po, 100 mg, tmax (median)",1 h
same,AUC(0-inf),"[1]; po, 200 mg",1830 ng·h/mL
same,AUC(0-t),"[1]; po, 200 mg, AUClast",1810 ng·h/mL
same,Cmax,"[1]; po, 200 mg",926 ng/mL
same,half-life,"[1]; po, 200 mg, t1/2",1.02 h
same,Tmax,"[1]; po, 200 mg, tmax (median)",1 h
same,AUC(0-inf),"[1]; po, 400 mg",4010 ng·h/mL
same,AUC(0-t),"[1]; po, 400 mg, AUClast",4000 ng·h/mL
same,Cmax,"[1]; po, 400 mg",1850 ng/mL
same,half-life,"[1]; po, 400 mg, t1/2",1.03 h
same,Tmax,"[1]; po, 400 mg, tmax (median)",1 h
same,AUC(0-inf),"[1]; po, 600 mg",6130 ng·h/mL
same,AUC(0-t),"[1]; po, 600 mg, AUClast",6120 ng·h/mL
same,Cmax,"[1]; po, 600 mg",2720 ng/mL
same,half-life,"[1]; po, 600 mg, t1/2",1.06 h
same,Tmax,"[1]; po, 600 mg, tmax (median)",1 h
same,AUC(0-inf),"[1]; po, 800 mg",8740 ng·h/mL
same,AUC(0-t),"[1]; po, 800 mg, AUClast",8720 ng·h/mL
same,Cmax,"[1]; po, 800 mg",3640 ng/mL
same,half-life,"[1]; po, 800 mg, t1/2",1.29 h
same,Tmax,"[1]; po, 800 mg, tmax (median)",1 h
same,AUC(0-inf),"[1]; po, 1200 mg",13800 ng·h/mL
same,AUC(0-t),"[1]; po, 1200 mg, AUClast",13800 ng·h/mL
same,Cmax,"[1]; po, 1200 mg",4500 ng/mL
same,half-life,"[1]; po, 1200 mg, t1/2",1.81 h
same,Tmax,"[1]; po, 1200 mg, tmax (median)",1.75 h
same,AUC(0-inf),"[1]; po, 1600 mg",20700 ng·h/mL
same,AUC(0-t),"[1]; po, 1600 mg, AUClast",20700 ng·h/mL
same,Cmax,"[1]; po, 1600 mg",6350 ng/mL
same,half-life,"[1]; po, 1600 mg, t1/2",4.59 h
same,Tmax,"[1]; po, 1600 mg, tmax (median)",1.5 h
same,half-life,"[1]; po, geometric mean terminal elimination half-lives (t1/2)",0.91 to 1.29 h
same,Tmax,"[1]; po, median tmax",1 h
same,bioavailability,[2],low bioavailability
same,EC50,[3],300 nM
same,AUC0−>t,[4],228.6 pmol · h/M cells
same,Cmax,[4],13.5 pmol/M Cells
same,EC90,[5],< 800 nM
same,"Slope (90% Confidence Interval) of power model, AUCinf",[6],"1.07 (1.02, 1.13)"
same,"Slope (90% Confidence Interval) of power model, AUClast",[6],"1.09 (1.03, 1.15)"
same,"Slope (90% Confidence Interval) of power model, Cmax",[6],"1.01 (0.927, 1.08)"
same,"Slope of power model, AUCinf",[6],1.10
same,"Slope of power model, AUClast",[6],1.11
same,"Slope of power model, AUCt",[6],1.08
same,"delay of median tmax, capsule vs solution formulation",[6],up to 0.75 hours
same,dose excreted in urine as EIDD-1931,[6],0.854-3.61%
same,geometric mean accumulation ratio based on AUCt,[6],0.938-1.16
same,geometric mean accumulation ratio based on Cmax,[6],0.843-1.10
same,"geometric mean ratio of AUCinf, capsule (multiple-dose cohorts Day 1) vs solution (single-dose cohorts)",[6],0.91-1.09
same,"geometric mean ratio of Cmax, capsule vs solution formulation",[6],0.76-1.00
same,RAcmax (accumulation ratio),[6]; 50 mg,0.843
same,RAcmax (accumulation ratio),[6]; 100 mg,1.10
same,FEAUC/inf (ratio of AUCinf fed:fasted),[6]; 200 mg,0.955
same,FECmax (ratio of Cmax fed:fasted),[6]; 200 mg,0.644
same,RAcmax (accumulation ratio),[6]; 200 mg,0.969
same,mean Cmax lower in the fed state compared to the fasted state,[6]; 200 mg,approximately 36%
same,RAcmax (accumulation ratio),[6]; 300 mg,0.861
same,RAcmax (accumulation ratio),[6]; 400 mg,0.962
same,RAcmax (accumulation ratio),[6]; 600 mg,1.04
same,RAcmax (accumulation ratio),[6]; 800 mg,1.09
same,t1/2,[6]; 800 mg,7.08¶ h
same,AUC0−>t,[7],249.8 pmol · h/M cells
same,Cmax,[7],13.4 pmol/M Cells
same,EC50,[8],< 400 nM
same,EC50,[9],< 800 nM
same,AUC0−>t,[10],5.8 pmol · h/M cells
same,Cmax,[10],0.3 pmol/M Cells
same,AUC0−>t,[11],449.2 pmol · h/M cells
same,Cmax,[11],29.0 pmol/M Cells
